Where two headings read alike, the source gives them in different places.
Assays:
[1] = target: human norepinephrine transporter (Homo sapiens (Human), UniProt P23975); assay: Human NET (norepinephrine transporter) uptake assay; format: cell-based; details: read-out: hNET Ki
Method: This protocol was designed to measure inhibition of uptake by the human norepinephrine transporter. […] The Assay Buffer (AB) was 1×HBSS and 0.02 M HEPES.
(§1) The HEK293F cells were transfected with the human norepinephrine transporter and frozen in 1 mL aliquots at about 1E+07 cells/mL. On the day of the experiment, the cells were removed from −80° C. or liquid nitrogen and thawed in a room temperature water bath. The cells were dilute to about 1-2E+06 with Freestyle medium. A 1 mL sample (1:2 dilution) was prepared, and the cells were counted. The cells were spun at 1100 rpm for 5 minutes, and the medium was aspirated off. The cells were resuspend in medium at 1.5E+06 cells/mL for about 60,000 cells per well. 40 μL of cells were dispensed per well in the Biocoat plates. The plates were spun at 1100 rpm for 1 minute to improve homogeneity of the cell layer and were incubated at 37° C. for a minimum of 3 hours.
(§2) 12 μL of test compound (10 mM) in DMSO was added to the wells, and nomifensine was used as a control. […] The neurotransmitter transporter dye was prepared in AB prior to use.
(§3) Due to the proprietary nature of the dye formulation, all dye concentrations were expressed as a percentage of the vendor-recommended dye reconstitution. Thus, the above calculations were valid when both [dye] and Km were expressed in the same units (%). Compounds were tested in triplicate (n=3).

[2] = target: human dopamine transporter (Homo sapiens (Human), UniProt Q01959); assay: Human DAT (dopamine transporter) uptake assay; format: cell-based; details: read-out: hDAT Ki
human dopamine transporter, sequence (Q01959 whole entry): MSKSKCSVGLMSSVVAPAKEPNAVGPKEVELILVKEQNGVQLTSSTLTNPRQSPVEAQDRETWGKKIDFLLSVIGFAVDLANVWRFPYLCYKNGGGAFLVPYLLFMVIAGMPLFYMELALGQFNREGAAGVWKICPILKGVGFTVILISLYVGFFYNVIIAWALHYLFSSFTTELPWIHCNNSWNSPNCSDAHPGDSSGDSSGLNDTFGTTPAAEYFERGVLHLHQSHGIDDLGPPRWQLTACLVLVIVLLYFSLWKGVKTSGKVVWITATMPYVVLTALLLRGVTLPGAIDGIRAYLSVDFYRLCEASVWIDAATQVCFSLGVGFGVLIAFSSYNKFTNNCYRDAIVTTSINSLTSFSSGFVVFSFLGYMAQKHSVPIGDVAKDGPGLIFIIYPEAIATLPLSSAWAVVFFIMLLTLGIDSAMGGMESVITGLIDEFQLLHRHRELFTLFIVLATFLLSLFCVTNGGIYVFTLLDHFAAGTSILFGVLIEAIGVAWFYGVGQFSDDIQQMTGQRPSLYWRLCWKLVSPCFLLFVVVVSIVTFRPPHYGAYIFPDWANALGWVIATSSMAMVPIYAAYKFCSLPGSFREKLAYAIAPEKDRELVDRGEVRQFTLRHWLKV
Method: This protocol was designed to measure inhibition of uptake by the human dopamine transporter. […] The Assay Buffer (AB) was 1×HBSS and 0.02 M HEPES.
as §1, with “dopamine” for “norepinephrine”
as §2
Due to the proprietary nature of the dye formulation, all dye concentrations were expressed as a percentage of the vendor-recommended dye reconstitution. Thus, the above calculations were valid when both [dye] and K1 were expressed in the same units (%). Compounds were tested in triplicate (n=3).

CYP2D6 = CYP2D6 (Homo sapiens (Human), UniProt P10635); assay: Cytochrome P450 inhibition assay, recombinant CYP2D6 (MAMC substrate); format: in vitro ADME; details: recombinant enzyme
CYP2D6, sequence (P10635 whole entry): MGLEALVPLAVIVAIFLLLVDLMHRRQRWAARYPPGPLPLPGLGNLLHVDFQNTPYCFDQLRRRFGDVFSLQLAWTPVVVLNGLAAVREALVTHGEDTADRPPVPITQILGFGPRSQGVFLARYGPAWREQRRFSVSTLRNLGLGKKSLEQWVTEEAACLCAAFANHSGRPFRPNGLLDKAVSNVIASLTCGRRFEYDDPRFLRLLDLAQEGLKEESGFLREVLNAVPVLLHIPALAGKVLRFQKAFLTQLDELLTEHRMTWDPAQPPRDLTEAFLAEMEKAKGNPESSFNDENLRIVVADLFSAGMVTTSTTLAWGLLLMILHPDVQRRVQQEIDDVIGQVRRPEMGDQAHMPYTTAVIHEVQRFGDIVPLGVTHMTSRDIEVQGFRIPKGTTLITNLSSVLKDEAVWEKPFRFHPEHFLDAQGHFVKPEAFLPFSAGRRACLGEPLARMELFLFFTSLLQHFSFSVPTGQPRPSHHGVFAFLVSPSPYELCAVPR
Method: Recombinant enzymes, 3A4 and 2D6, generated using the ABL yeast expression system were used. […] The assay mixture also included K2HPO4 (pH 7.4; conc. 0.1 M) and NADPH (conc. 1 mM). The incubation time was 30 minutes, and the reference inhibitor was A-naphthoflavone. For CYP2D6, the enzyme amount was 2 pmol per well, and the substrate (7-methoxy-4-(aminomethyl)-coumarin; MAMC) was used at 20 μM. The assay mixture also included K2HPO4 (pH 7.4; conc. 0.1 M) and NADPH (conc. 0.06 mM). The incubation time was 35 minutes, and the reference inhibitor was quinidine.
Briefly, 0.6 μL of serially diluted compound was added to 75 μL water. 10 μL of diluted compound in water was then added to each assay plate. 20 μL of a K2HPO4, enzyme, and substrate mixture was added. After 10 minutes of room temperature pre-incubation, 10 μL of NADPH was added, and the plates were placed at 37° C. for 30 or 35 minutes depending on the enzyme being tested. After the incubation was complete, 20 μL of 0.1% Tris/ACN was added to the plate. The plate was read on a FluorStar fluorescence plate reader.

CYP3A4 = CYP3A4 (Homo sapiens (Human), UniProt P08684); assay: Cytochrome P450 inhibition assay, recombinant CYP3A4 (BFC substrate); format: in vitro ADME; details: recombinant enzyme
CYP3A4, sequence (P08684 whole entry): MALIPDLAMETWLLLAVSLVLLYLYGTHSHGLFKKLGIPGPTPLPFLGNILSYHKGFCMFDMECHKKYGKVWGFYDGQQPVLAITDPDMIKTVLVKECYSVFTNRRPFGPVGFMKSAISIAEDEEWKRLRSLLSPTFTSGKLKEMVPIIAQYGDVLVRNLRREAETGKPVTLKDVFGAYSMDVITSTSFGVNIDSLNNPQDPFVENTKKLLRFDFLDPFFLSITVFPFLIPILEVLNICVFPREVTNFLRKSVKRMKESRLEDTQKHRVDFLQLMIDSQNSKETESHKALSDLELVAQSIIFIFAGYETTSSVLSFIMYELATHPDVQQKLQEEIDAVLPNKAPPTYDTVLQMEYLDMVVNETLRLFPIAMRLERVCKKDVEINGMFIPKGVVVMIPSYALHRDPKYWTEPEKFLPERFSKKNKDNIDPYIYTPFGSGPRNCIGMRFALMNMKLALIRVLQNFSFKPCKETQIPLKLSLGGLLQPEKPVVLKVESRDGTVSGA

[3] = pKa of basic centres (Table 1); format: physicochemical
[4] = target: human serotonin transporter (Homo sapiens (Human), UniProt P31645); assay: Human SERT (serotonin transporter) uptake assay; format: cell-based; details: read-out: hSERT Ki
human serotonin transporter, sequence (P31645 whole entry): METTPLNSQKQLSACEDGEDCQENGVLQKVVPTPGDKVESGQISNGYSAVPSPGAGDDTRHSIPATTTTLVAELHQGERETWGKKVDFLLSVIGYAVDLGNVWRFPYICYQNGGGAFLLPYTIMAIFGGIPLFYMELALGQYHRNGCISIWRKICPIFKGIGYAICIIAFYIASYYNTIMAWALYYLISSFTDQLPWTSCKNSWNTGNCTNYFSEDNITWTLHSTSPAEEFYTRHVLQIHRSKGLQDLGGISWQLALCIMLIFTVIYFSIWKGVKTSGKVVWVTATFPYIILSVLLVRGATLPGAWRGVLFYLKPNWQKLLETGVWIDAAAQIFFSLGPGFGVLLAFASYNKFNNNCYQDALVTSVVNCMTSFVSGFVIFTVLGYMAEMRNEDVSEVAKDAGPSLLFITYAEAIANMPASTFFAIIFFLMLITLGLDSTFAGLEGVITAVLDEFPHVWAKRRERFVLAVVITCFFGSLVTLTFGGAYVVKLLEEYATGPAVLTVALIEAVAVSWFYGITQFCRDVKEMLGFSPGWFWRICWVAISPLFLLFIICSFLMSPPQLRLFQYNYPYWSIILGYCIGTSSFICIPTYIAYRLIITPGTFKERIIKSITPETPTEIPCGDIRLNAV
Method: This protocol was designed to measure inhibition of uptake by the human serotonin transporter. […] The Assay Buffer (AB) was […] and 0.02 M HEPES.
as §1, with “serotonin” for “norepinephrine”
12 μL of test compound (10 mM) in DMSO was added to the wells, and nomifensine was used as a control. Fluoxetine (final assay concentration of 10 μM) was used for background signal. The neurotransmitter transporter dye was prepared in AB prior to use.
as §3

[5] = first base, e.g., an aliphatic primary, secondary, or tertiary amine, read-out: pKa (Base 1)
[6] = second base in the same molecule (if present), read-out: pKa (Base 2)

human norepinephrine transporter, sequence (P23975 whole entry): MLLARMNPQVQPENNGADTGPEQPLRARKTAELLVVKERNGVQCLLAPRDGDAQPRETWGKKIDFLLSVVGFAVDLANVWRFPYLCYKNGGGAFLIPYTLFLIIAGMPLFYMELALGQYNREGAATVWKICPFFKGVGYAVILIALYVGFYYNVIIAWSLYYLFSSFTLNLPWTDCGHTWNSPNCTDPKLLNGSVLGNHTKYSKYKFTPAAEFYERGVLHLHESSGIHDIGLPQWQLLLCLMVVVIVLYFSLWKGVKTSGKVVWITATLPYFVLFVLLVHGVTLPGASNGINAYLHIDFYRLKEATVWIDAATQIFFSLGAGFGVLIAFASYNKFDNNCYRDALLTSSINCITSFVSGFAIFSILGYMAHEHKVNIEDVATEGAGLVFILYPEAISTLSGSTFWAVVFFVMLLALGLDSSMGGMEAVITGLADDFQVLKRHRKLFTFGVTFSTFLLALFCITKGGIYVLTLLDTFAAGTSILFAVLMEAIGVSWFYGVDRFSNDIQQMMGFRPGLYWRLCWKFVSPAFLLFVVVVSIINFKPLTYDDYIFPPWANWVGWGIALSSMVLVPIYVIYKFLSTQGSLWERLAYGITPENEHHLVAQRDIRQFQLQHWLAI

| Structure (SMILES) | Ki [1] | Ki [2] | IC50 (CYP2D6) | IC50 (CYP3A4) | pKa [3, 5] | Ki [4] | pKa [3, 6] | pKa (Base 1) ([3]; first base, e.g., an aliphatic primary, secondary, or tertiary amine) |
| --- | --- | --- | --- | --- | --- | --- | --- | --- |
| CNC[C@H](c1ccc(OC)c(C)c1)[C@H](O)c1ccccc1 (racemic) [Compound 54] | 4.5 nM | 971 nM | – | – | 10 | 2.4 nM | – | – |
| CNCC(Cc1cccnc1)c1ccc(Cl)c(Cl)c1 (racemic) [Compound 80] | – | 52.2 nM | – | – | 9.6 | 34.7 nM | 5.2 | – |
| CNC[C@H](c1ccc(-c2ccccc2)cc1)[C@H](O)c1ccccc1 (racemic) [Compound 113] | 167 nM | 1570 nM | 220 nM | 16000 nM | 9.8 | 5.2 nM | – | – |
| CNC[C@@H](c1ccc(Br)c(Cl)c1)[C@H](O)c1ccccc1 (racemic) [Compound 150] | 6.3 nM | 31.8 nM | – | – | 9.4 | 51.5 nM | – | – |
| CNC[C@H](c1ccc(Cl)c(Cl)c1)[C@H](O)c1ccncc1 (racemic) [Compound 155] | 17.8 nM | 46.6 nM | 1400 nM | ≥ 20000 nM | 9.3 | 73.7 nM | 5.3 | – |
| CNC[C@H](c1ccc2ccccc2c1)[C@H](O)c1cc(F)cc(F)c1 (single isomer, unassigned) [Compound 37] | 3 nM | 63.6 nM | – | – | 9.6 | 54.6 nM | – | – |
| CNC[C@H](c1ccc2ccccc2c1)[C@H](O)c1ccc(Cl)s1 (single isomer, unassigned) [Compound 58] | 5.1 nM | 127 nM | 120 nM | 9600 nM | 9.7 | 5.9 nM | – | – |
| O[C@@H](c1ccccc1)[C@@H](CNCC(F)(F)F)c1ccc2ccccc2c1 (single isomer, unassigned) [Compound 130] | 4570 nM | 87.3 nM | 3700 nM | – | 4.6 | 3370 nM | – | – |
| CNCC(CCc1ccccc1)[C@@H](O)c1ccccc1 (stereo partly drawn) [Compound 27] | 2.3 nM | 96.7 nM | – | – | – | 252 nM | – | 10.1 |
| CNCC(c1ccc2ccccc2c1)C(OC)c1ccccc1 (stereo not drawn) [Compound 38] | 3.1 nM | 49.9 nM | – | – | 9.7 | 16.9 nM | – | – |
| CNC[C@H](c1ccc2ccccc2c1)[C@H](O)c1cccs1 [Compound 47] | – | 15 nM | – | – | 9.7 | 2.2 nM | – | – |
| CNC[C@H](c1ccc2ccccc2c1)[C@H](OCC(=O)NCCOC)c1ccccc1 [Compound 51] | 3.9 nM | 141 nM | – | – | 9.6 | 2.6 nM | – | – |
| CNC[C@H](c1ccc2ccccc2c1)[C@H](OCC(=O)N(C)OC)c1ccccc1 [Compound 71] | 10 nM | 17.9 nM | – | – | 9.6 | 4.4 nM | – | – |
| CNC[C@H](c1ccc2ccccc2c1)[C@H](OCc1cccc(=O)n1C)c1ccccc1 [Compound 79] | 14.4 nM | 73.3 nM | – | – | 9.7 | 6.4 nM | – | – |
| CNC[C@H](c1ccc2ccccc2c1)[C@H](OCc1nc(C(=O)OC)co1)c1ccccc1 [Compound 84] | 16.2 nM | 39.2 nM | – | – | 9.6 | 3.3 nM | – | – |
| CN1C[C@H](c2ccc3ccccc3c2)[C@@H](c2ccccc2)OCC1=O [Compound 129] | 3670 nM | 43.5 nM | 20000 nM | 20000 nM | – | 3370 nM | – | – |
| CNCC(CCc1ccccc1)[C@@H](O)c1ccccc1 (stereo partly drawn) [Compound 147] | 45.7 nM | 121 nM | – | – | 10.1 | 800 nM | – | – |
| CNCCC(Oc1ccccc1OC)c1ccccc1 (stereo not drawn) [compound 177] | – | – | – | – | – | 54.4 nM | – | – |

The remaining compounds from weak to strong by Ki [2], led by results:

| Ki [1] | Ki [2] | IC50 (CYP2D6) | IC50 (CYP3A4) | pKa [3, 5] | Ki [4] | pKa [3, 6] | pKa (Base 1) ([3]; first base, e.g., an aliphatic primary, secondary, or tertiary amine) | Structure (SMILES) |
| --- | --- | --- | --- | --- | --- | --- | --- | --- |
| 14.7 nM | 1360 nM | – | – | 9.6 | 13 nM | – | – | CNC[C@H](c1ccc2ccccc2c1)[C@H](O[C@H](C)C(=O)N1CCCC1)c1ccccc1 [Compound 81] |
| 290 nM | 379 nM | 6600 nM | – | 8.2 | 12 nM | – | – | CN1CCO[C@@H](c2ccccc2)[C@@H](c2ccc3ccccc3c2)C1 [Compound 123] |
| 7.7 nM | 129 nM | – | – | 9.7 | 119 nM | – | – | CNC[C@H](c1ccc(Br)cc1)[C@H](O)c1ccccc1 (racemic) [Compound 149] |
| – | 127 nM | – | – | 9.6 | 642 nM | 5.2 | – | CNC[C@H](Cc1cccnc1)c1ccc(Cl)c(Cl)c1 [Compound 115] |
| 8.5 nM | 114 nM | – | – | 9.7 | 191 nM | – | – | CNC[C@H](c1ccc(Cl)cc1)[C@H](O)c1ccccc1 (racemic) [Compound 148] |
| – | 113 nM | – | – | 9.7 | 10 nM | – | – | CNC[C@@H](c1ccc2ccccc2c1)[C@@H](O)c1cccs1 [Compound 144] |
| – | 112 nM | – | – | 9.6 | 35.6 nM | 5.2 | – | CNC[C@@H](Cc1cccnc1)c1ccc(Cl)c(Cl)c1 [Compound 59] |
| – | 77.7 nM | – | – | 9.3 | 31.8 nM | – | – | NCC(Cc1ccccc1F)c1ccc2ccccc2c1 (stereo not drawn) [Compound 137] |
| 8.4 nM | 55.5 nM | – | – | 9.6 | 29.7 nM | – | – | CNC[C@H](c1ccc2ccccc2c1)[C@H](OCC(=O)NCC(F)(F)F)c1ccccc1 [Compound 68] |
| 3.4 nM | 37.5 nM | – | – | 9.7 | 24.2 nM | – | – | CNC[C@H](c1ccc2ccccc2c1)[C@H](OC)c1ccccc1 [Compound 46] |
| 2.4 nM | 24.6 nM | – | – | 9.6 | 1.9 nM | – | – | CNC[C@H](c1ccc2ccccc2c1)[C@H](OCc1cccn(C)c1=O)c1ccccc1 [Compound 31] |
| 64.6 nM | 18.1 nM | 2100 nM | ≥ 20000 nM | 8.8 | 138 nM | – | – | CN(C)C[C@H](c1ccc(Cl)c(Cl)c1)[C@H](O)c1ccccc1 (racemic) [Compound 105] |
| 338 nM | 15.3 nM | 3000 nM | – | 8.2 | 167 nM | – | – | CN1CCO[C@@H](c2ccccc2)[C@H](c2ccc3ccccc3c2)C1 [Compound 124] |
| 1.4 nM | 10.8 nM | – | – | 9.6 | 1.3 nM | – | – | CNC[C@H](c1ccc2ccccc2c1)[C@H](OCC(=O)NC1CCC1)c1ccccc1 [Compound 8] |
| 3.2 nM | 10.6 nM | 130 nM | 19000 nM | 9.6 | 52.5 nM | – | – | CNC[C@H](c1ccc2ccccc2c1)[C@H](O)c1cc(F)cc(F)c1 (racemic) [Compound 41] |
| 3.3 nM | 8.9 nM | – | – | 9.7 | 2.4 nM | – | – | CNC[C@H](c1ccc2ccccc2c1)[C@H](OCC(=O)Nc1ccccc1)c1ccccc1 [Compound 45] |
| 1.4 nM | 6.6 nM | – | – | 9.5 | 3.6 nM | 3 | – | CNC[C@H](c1ccc2ccccc2c1)[C@@H](O)c1ccncc1Cl [Compound 7] |

From patent publication US9944618B2, “Inhibiting neurotransmitter reuptake” (Mayo Foundation for Medical Education and Research, priority 2013, dated 2018)
